Assay results as given in EP4644396A1 (Visionpharma (Nantong) Co., Ltd, priority 2022, dated 2024).

Columns and labels:
human TLR7 = biological target: T1, human TLR7 (Homo sapiens, UniProt Q9NYK1); experiment: HEK-Blue hTLR7 SEAP reporter gene inhibition assay; assay type: cell-based; conditions: hTLR7 HEK-Blue cells, TLR7 ligand Gardiquimod 10 µM, 20 hours, SEAP by Quanti-blue; class symbols; read-out: HEK-Blue hTLR7 IC50
T1 sequence (Q9NYK1 27-1049): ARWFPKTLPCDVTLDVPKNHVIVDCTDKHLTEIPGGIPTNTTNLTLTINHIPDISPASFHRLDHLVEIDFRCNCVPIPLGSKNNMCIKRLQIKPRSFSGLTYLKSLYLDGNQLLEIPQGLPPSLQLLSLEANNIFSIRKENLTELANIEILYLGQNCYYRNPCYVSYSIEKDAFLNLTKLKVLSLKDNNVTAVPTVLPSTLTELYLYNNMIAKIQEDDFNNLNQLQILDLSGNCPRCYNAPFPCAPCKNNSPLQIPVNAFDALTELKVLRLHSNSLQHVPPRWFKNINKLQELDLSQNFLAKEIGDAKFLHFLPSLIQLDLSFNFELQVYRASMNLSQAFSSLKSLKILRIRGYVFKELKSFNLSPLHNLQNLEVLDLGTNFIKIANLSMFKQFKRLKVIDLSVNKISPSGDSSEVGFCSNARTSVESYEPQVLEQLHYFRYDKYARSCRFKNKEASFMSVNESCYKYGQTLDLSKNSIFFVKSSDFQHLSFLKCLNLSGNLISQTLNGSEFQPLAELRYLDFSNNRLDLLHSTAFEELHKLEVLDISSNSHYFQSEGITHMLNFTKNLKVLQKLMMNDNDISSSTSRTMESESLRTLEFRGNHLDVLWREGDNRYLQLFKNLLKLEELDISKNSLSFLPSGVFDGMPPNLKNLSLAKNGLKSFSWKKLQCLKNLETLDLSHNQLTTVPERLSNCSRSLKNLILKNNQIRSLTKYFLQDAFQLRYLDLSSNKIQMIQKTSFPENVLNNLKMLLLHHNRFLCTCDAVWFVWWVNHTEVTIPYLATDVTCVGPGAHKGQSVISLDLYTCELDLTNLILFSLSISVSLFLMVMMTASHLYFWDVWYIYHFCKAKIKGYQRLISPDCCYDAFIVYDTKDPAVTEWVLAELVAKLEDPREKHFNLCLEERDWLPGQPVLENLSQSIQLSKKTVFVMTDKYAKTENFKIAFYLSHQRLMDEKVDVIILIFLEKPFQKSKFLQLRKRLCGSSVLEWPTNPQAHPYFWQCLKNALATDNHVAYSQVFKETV
Summary of the method: (§1)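 HEK-Blue cells stably expressing hTLR7 (80,000/well) or hTLR8 (60,000/well), SEAP under IFN-β minimal promoter with five NF-κB/AP-1 sites. Compounds (0.001–36 µM final) preincubated 15 min, then 10 µM ligand (Gardiquimod for TLR7) for 20 h. SEAP read with Quanti-Blue; IC50 calculated.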

human TLR8 = biological target: T2, human TLR8 (Homo sapiens, UniProt Q9NR97); experiment: HEK-Blue hTLR8 SEAP reporter gene inhibition assay; assay type: cell-based; conditions: hTLR8 HEK-Blue cells, TLR8 ligand 10 µM, 20 hours, SEAP by Quanti-blue; class symbols; read-out: HEK-Blue hTLR8 IC50
T2 construct: expressed in transfected cells
T2 sequence (Q9NR97 27-1041): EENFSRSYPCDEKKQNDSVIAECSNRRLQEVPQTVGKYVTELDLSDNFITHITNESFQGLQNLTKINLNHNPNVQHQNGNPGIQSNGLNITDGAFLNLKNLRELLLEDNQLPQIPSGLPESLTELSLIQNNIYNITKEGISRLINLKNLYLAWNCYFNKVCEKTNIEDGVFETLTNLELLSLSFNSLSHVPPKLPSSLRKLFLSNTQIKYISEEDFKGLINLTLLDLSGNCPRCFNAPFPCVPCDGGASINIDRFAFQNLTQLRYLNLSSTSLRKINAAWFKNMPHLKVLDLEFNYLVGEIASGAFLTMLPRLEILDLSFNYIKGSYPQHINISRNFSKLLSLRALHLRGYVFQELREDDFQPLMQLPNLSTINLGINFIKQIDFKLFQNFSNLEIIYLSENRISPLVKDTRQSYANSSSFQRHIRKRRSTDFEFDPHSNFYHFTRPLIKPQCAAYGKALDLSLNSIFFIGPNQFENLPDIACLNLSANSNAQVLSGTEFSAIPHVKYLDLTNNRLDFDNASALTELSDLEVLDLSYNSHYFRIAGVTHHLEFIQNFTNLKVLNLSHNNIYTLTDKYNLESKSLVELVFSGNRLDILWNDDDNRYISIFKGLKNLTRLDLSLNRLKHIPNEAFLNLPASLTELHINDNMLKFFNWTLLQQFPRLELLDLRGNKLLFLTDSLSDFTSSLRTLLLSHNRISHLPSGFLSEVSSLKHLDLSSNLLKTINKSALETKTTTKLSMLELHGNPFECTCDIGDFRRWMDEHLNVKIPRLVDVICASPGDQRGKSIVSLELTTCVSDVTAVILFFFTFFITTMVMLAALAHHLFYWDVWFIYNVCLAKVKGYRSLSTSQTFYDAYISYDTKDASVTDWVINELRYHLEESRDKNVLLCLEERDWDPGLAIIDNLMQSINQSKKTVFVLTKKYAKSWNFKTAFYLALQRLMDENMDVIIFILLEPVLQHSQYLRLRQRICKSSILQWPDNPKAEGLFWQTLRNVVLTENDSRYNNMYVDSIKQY
Summary of the method: as §1

Row | SMILES | IC50 (human TLR7) [nM] | IC50 (human TLR8) [nM]
1 | C[C@@H]1CN(c2ccc(C#N)n3ncc(F)c23)Cc2c3c(nn21)CN([C@@H]1CCNC1=O)[C@@H](C)C3 [Example I-155, 4-((4R,9S)-4,9-dimethyl-8-((R)-2-oxopyrrolidin-3-yl)-3,4,7,8,9,10-hexahydropyrido[3',4':3,4]pyrazolo[1,5-a]pyrazin-2(1H)-yl)-3-fluoropyrazolo[1,5-a]pyridine-7-carbonitrile] | < 50 | > 100
2 | CC(C(N)=O)N1Cc2nn3c(c2C[C@@H]1C)CN(c1ccc(C#N)n2ncc(F)c12)C[C@H]3C (stereo partly drawn) [Example I-156, 2-((4R,9S)-2-(7-cyano-3-fluoropyrazolo[1,5-a]pyridin-4-yl)-4,9-dimethyl-1,2,3,4,9,10-hexahydropyrido[3',4':3,4]pyrazolo[1,5-a]pyrazin-8(7H)-yl)propanamide] | > 50 | > 100
3 | C[C@@H]1CN(c2ccc(C#N)n3ncc(F)c23)Cc2c3c(nn21)CN([C@H]1CCNC1=O)[C@@H](C)C3 [Example I-157, 4-((4R,9S)-4,9-dimethyl-8-((S)-2-oxopyrrolidin-3-yl)-3,4,7,8,9,10-hexahydropyrido[3',4':3,4]pyrazolo[1,5-a]pyrazin-2(1H)-yl)-3-fluoropyrazolo[1,5-a]pyridine-7-carbonitrile] | > 50 | > 100
4 | C[C@@H]1CN(c2ccc(C#N)n3ncc(F)c23)Cc2c3c(nn21)CN(C[C@@H](O)CO)[C@@H](C)C3 [Example I-158, 4-((4R,9S)-8-((R)-2,3-dihydroxypropyl)-4,9-dimethyl-3,4,7,8,9,10-hexahydropyrido[3',4':3,4]pyrazolo[1,5-a]pyrazin-2(1H)-yl)-3-fluoropyrazolo[1,5-a]pyridine-7-carbonitrile] | < 50 | < 100
5 | C[C@@H]1CN(c2ccc(C#N)n3ncc(F)c23)Cc2c3c(nn21)CN(C(CO)CO)[C@@H](C)C3 [Example I-159, 4-((4R,9S)-8-(1,3-dihydroxypropan-2-yl)-4,9-dimethyl-3,4,7,8,9,10-hexahydropyrido [3',4':3,4]pyrazolo[1,5-a]pyrazin-2(1H)-yl)-3-fluoropyrazolo[1,5-a]pyridine-7-carbonitrile] | > 50 | > 100
6 | C[C@@H]1CN(c2ccc(C#N)n3ncc(F)c23)Cc2c3c(nn21)CN(C[C@H](O)CO)[C@@H](C)C3 [Example I-160, 4-((4R,9S)-8-((S)-2,3-dihydroxypropyl)-4,9-dimethyl-3,4,7,8,9,10-hexahydropyrido[3',4':3,4]pyrazolo[1,5-a]pyrazin-2(1H)-yl)-3-fluoropyrazolo[1,5-a]pyridine-7-carbonitrile] | > 50 | > 100
7 | C[C@@H]1Cc2c(nn3c2CN(c2ccc(C#N)n4ncc(F)c24)C[C@H]3C)[C@H](C)N1CC(N)=O [Example I-165, 2-((4R,7S,9R)-2-(7-cyano-3-fluoropyrazolo[1,5-a]pyridin-4-yl)-4,7,9-trimethyl-1,2,3,4,9,10-hexahydropyrido[3',4':3,4]pyrazolo[1,5-a]pyrazin-8(7H)-yl)acetamide] | < 50 | > 100
8 | C[C@@H]1CN(c2ccc(C#N)n3ncc(F)c23)Cc2c3c(nn21)CN(C1CCC1O)[C@@H](C)C3 (stereo partly drawn) [Example I-174, 3-Fluoro-4-((4R,9S)-8-(2-hydroxycyclobutyl)-4,9-dimethyl-3,4,7,8,9,10-hexahydropyrido[3',4':3,4]pyrazolo[1,5-a]pyrazin-2(1H)-yl)pyrazolo[1,5-a]pyridine-7-carbonitrile] | < 50 | > 100
9 | C[C@@H]1CN(c2ccc(C#N)n3ncc(F)c23)Cc2c3c(nn21)CN(CC1(N)COC1)[C@@H](C)C3 [Example I-184, 4-((4R,9S)-8-((3-aminooxetan-3-yl)methyl)-4,9-dimethyl-3,4,7,8,9,10-hexahydropyrido[3',4':3,4]pyrazolo[1,5-a]pyrazin-2(1H)-yl)-3-fluoropyrazolo[1,5-a]pyridine-7-carbonitrile] | > 50 | > 100
